Drawing on ChEMBL document CHEMBL3886721, “Thienopyrimidine compounds and use thereof” (2016), this text covers IC50 for 1 compound.

The structures appear in SMILES notation.

The target in this experiment is T1, Gonadotropin-releasing hormone receptor (Macaca fascicularis, UniProt G7P5Q7).
T1 sequence (G7P5Q7 whole entry): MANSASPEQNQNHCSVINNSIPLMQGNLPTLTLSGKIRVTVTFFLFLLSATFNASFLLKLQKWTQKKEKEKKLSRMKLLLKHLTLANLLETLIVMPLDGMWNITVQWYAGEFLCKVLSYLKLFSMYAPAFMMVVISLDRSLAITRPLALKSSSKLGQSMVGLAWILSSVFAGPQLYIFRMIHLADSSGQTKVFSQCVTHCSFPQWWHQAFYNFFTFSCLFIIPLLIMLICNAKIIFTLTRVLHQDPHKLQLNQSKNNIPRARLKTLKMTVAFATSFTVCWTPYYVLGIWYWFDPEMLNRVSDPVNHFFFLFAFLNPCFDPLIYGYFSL
In words: 125I-Leuprorelin Binding Assay: The monkey and human membrane fractions prepared were diluted with the assay buffer to yield a 200 µg/ml dilution, each of which was then dispensed at 188 μl per tube. To a tube containing the cell membrane fraction of the CHO with monkey GnRH receptors expressed were added 2 μl of a solution of 20 mM compound in 60% DMSO and 10 μl of 38 nM 125I-leuprorelin. To a tube containing the cell membrane fraction of the CHO with human GnRH receptors expressed were added 2 μl of a solution of 2 mM compound in 60% DMSO and 10 μl of 38 nM 125I-leuprorelin. To determine maximum binding quantity, a reaction mixture containing 2 μl of 60% DMSO and 10 μl of 38 nM 125I-leuprorelin was prepared. To determine non-specific binding amount, a reaction mixture containing 2 μl of a solution of 100 μM leuprorelin in 60% DMSO and 10 μl of 38 nM 125I-leuprorelin was prepared.

Broadly, the IC50 is the concentration that gives 50% inhibition.

Take `CCOCCN(C)Cc1c(-c2ccc(NC(=O)NOC)cc2)sc2c1c(=O)n(-c1ccccn1)c(=O)n2Cc1c(F)cccc1F`: the IC50 amounted to 3 nM.
